Results as given in article PMC3077712 (2010).

Legend:
Cyclooxygenase-2 (COX-2) [1] = biological target: T1, Cyclooxygenase-2 (COX-2) (Ovis aries, UniProt P79208); experiment: purified enzyme, product formation and regioisomers by RP-HPLC-MS/MS; assay type: biochemical
T1 sequence (P79208 17-603): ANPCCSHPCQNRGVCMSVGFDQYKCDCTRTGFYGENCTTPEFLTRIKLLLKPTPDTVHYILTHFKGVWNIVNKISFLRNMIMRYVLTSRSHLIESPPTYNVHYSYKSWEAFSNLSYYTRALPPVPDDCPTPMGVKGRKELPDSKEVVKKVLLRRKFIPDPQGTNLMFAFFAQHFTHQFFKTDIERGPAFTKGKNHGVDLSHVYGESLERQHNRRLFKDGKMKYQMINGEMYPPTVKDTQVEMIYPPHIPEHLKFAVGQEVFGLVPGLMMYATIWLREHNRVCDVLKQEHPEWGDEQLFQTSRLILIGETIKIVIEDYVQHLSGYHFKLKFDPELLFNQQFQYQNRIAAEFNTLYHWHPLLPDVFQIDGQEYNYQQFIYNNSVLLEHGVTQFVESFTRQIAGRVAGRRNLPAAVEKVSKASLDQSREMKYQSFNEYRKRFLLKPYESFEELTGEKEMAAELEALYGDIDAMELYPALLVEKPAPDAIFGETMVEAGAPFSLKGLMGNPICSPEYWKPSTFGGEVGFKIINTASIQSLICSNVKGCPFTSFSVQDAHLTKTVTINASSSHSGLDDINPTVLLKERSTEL

Cyclooxygenase-2 (COX-2) [2] = biological target: T1, Cyclooxygenase-2 (COX-2); experiment: purified enzyme turnover, RP-HPLC-MS/MS; assay type: biochemical

| Compound | purified enzyme, product formation and regioisomers by RP-HPLC-MS/MS (Cyclooxygenase-2 (COX-2) [1]) | purified enzyme turnover, RP-HPLC-MS/MS (Cyclooxygenase-2 (COX-2) [2]) |
| --- | --- | --- |
| CC(=O)Oc1ccccc1C(=O)O [ASA] | ASA increased the rate and extent of formation of OH-DPA (Fig. 3c) and shifted the distribution of hydroxy regioisomers |  |
| CC/C=C\C/C=C\C/C=C\C/C=C\C/C=C\CCCCCC(=O)O [DPA, (7Z,10Z,13Z,16Z,19Z)-docosapentaenoic acid] |  | purified ovine COX-2 generated the EFOX-D5 precursor, hydroxy-DPA (OH-DPA), from DPA |
